# Reference: US12415939B2, “Nano-adhesive and surface primer compound and use thereof” (The Regents of the University of California, priority 2015, dated 2025)
# “And” between values parts separate entries of the source, which are not always exact repeats. Equal values may be shown once.
# Tests used:
# [1] = SFA adhesion of cured PMA resin between primer-treated mica surfaces
# Protocol: Atomically-smooth muscovite mica sheets were freshly cleaved (thickness of 2-5 μm) and attached on another large freshly cleaved mica backing sheet under a laminar flow hood and placed in a desiccator for clean storage. To ensure use of a fresh surface for each experiment, mica was peeled away from the backing sheet and glued on cylindrical disks using an epoxy glue (EPON 1004 F® from Exxon Chemicals). In each experiment, the mica surfaces were treated with one of the primer solutions, as described for the lap shear experiments, and then mounted in the SFA in a cross cylindrical geometry. In contrast to typical SFA experiments, which use an interferometric method to calculate the disk-disk separation distances and thus the interaction forces, in the SFA used here for adhesion testing, the disk separations were directly measured using semiconductor strain-gauged double cantilever springs (k=1000-10000 N/m)(see FIG. 67). After separating the surfaces, 100 […]1 of comonomer blend was injected between the two surfaces. Then, ˜600 mN of load was applied, followed by visible light curing for 1 min using the portable dental curing lamp (see FIG. 54G). Adhesion strength of cured polymer toward the mica was measured by detaching (unloading) two surfaces. All loading and unloading were performed using a coarse micrometer at the velocity of […]. The SFA measurements were repeated at least 5 times for each condition.
# [2] = QCM-D adsorption of primers; format: physicochemical
# Protocol: A ‘static cell’ (often called ‘Open Module’) QCM-D (Q-Sense, Biolin Scientific) was employed to quantitatively evaluate the adsorption of each primer onto SiO2 surface using a quartz sensor (QSX 303, Biolin Scientific). Changes in resonance frequency (ΔF) and dissipation (ΔD) of the SiO2 were recorded and used to measure the adsorbed mass and layer viscoelasticity, respectively, of the primer deposited on the sensor. In detail, pure solvent (100 μl) was dropped onto the sensor and equilibrated for ˜20-30 min. Then, 2 wt % primer solution (100 μl) was dropped onto the sensor (this is labeled “Solution Drop-in” in FIG. 51) and equilibrated until the frequency and dissipation signals stabilized. To remove unbound primers, the sensor was rinsed with solvents (this is labeled “Solvent Rinsing” in FIG. 51) and equilibrated until frequency and dissipation signals stabilized.
# Mass loss of P3 and P4 during the rinsing was negligible compared to P2 which lost 60% of initial mass, indicating outstanding adsorption efficiency of catechol-containing primers on SiO2 surfaces even compared to mussel foot protein adsorption (˜30% loss of mfp-3s^3). The priming thickness of P4 estimated by QCM-D is ˜3.1 nm which agrees with the average height of AFM images (˜3.5 nm), assuming that QCM-D measures the average thickness of a uniform layer. The smaller average thickness of P4 (˜3.1 nm) compared to the molecular contour length (˜4.8 nm) may be attributed to the flexible alkyl spacer in P4. The possibility of a softer, more flexible layer with P4 is supported by a higher change in dissipation (ΔD) compared to other primers.
# [3] = system: L929 mammalian fibroblast cells; assay: Cell viability assay on surface treated glass (ISO 10993); format: cell-based; conditions: primed glass surface, 3 days, trypan blue
# Protocol: L929 mammalian fibroblast cells were purchased from the Korean Cell Line Bank (Seoul, Korea) and cultured in Roswell Park Memorial Institute (RPMI) 1640 media (Life Technologies) with 10% fetal bovine serum, 25 mM sodium bicarbonate and 1% penicillin-streptomycin. Silane-grafted and Catechol (P3) primed glass slides were prepared by following procedures described in section 6 and 3, respectively. Each glass substrate was placed on the 100π cell culture plate and sterilized by 70% ethanol solution. After equilibrated in phosphate buffered saline (PBS) and media for 5 min each, L929 cells were seeded onto the glass substrates at a density of 1×10^6 cells per plate. Cells were incubated for 3 days in 5% CO2 at 37° C. After 3 days, the substrates were transferred to new culture plates and washed extensively with PBS. Cells were then detached by 0.05% trypsin-EDTA and stained with trypan blue solution to assess cell viability. Living cells are impermeable to the stain, whereas dead cells with compromised membranes turn blue. The number of live cells was counted using a standard hemocytometer. The bare glass slide without any modification served as a control (FIGS. 56A-56B).
# [4] = AFM height profiles of adsorbed primers; format: physicochemical
# Protocol: Each primer solution (1 wt %) was prepared in methanol (for P1-P3) or DMSO (for P4). The primer solution was drop cast onto a freshly cleaved mica or glass surface, and kept at room temperature for 1 min. Subsequently, the surfaces were thoroughly rinsed with the respective solvents and dried with argon. All images, surface profiles and surfaces roughnesses were collected using an Asylum MFP-3D standard system (Asylum Research, Santa Barbara, CA) using silicon cantilevers (FORTGG-50, Applied NanoStructures, Santa Clara, CA) (FIGS. 48C and 49).
# [5] = Lap shear test of cured PMA resin on primed tooth enamel; design: species or system human
# Protocol: (§1) 1 wt % primer solution was spread on mica, glass, tooth enamel, or a silicon wafer and incubated for 1 min, followed by thorough washing with methanol (for MDP, P1-P3) or DMSO (for P4) and drying by flowing nitrogen. The surfaces were exposed to a basic aqueous solution (pH 9, using sodium hydroxide), incubated for 1 min, and drying by flowing nitrogen (see FIG. 52). The methacrylic comonomer blend (Bis-GMA, TEGDMA, DMAEMA and CQ) was packed in a gelatin capsule (size #4, 5-mm diameter, Torpac Inc.) and placed up on top of the primer-treated substrates. The comonomer blend was cured (or crosslinked) for 1 min using a portable dental curing lamp (Foshan Liang Ya Dental Co., LY-A180, 420-480 nm, 1200-2000 mW·cm^−2) (see FIG. 53). Uniaxial compression was applied to the capsule at a rate of 0.05 inch min^−1 using a materials testing system (MTS Bionix 200) until the capsules are separated from the substrate. The lap shear fracture measurements were repeated at least 10 times for each condition.
# [6] = Lap shear test of cured PMA resin on primed mica; conditions: first value of each pair (mica)
# Protocol: as §1
# [7] = Lap shear test of cured PMA resin on primed silica/glass; conditions: second value of each pair (silica)
# Protocol: as §1
# [8] = Surface forces apparatus (SFA) cohesion/adhesion between thin films on mica; format: physicochemical; conditions: symmetric films adsorbed from 5 mM, DI water, mica
# Protocol: The interaction between two surfaces can be measured with nano-Newton level force resolution and Angstrom level resolution in the separation distance between the surfaces. The details of the SFA techniques have been describe in a work by Israelachvili et al. In a typical SFA experiment (FIG. 2C), the distance and the force between the surfaces are measured simultaneously. To begin with, the instrument is calibrated at large separation distances. When the two surfaces are not interacting, i.e., they are separated by large distances, the change in the separation between them is equal to the distance through which the motor moves the lower surface towards or away from the upper surface (or the upper surface driven by the piezo-tube moves towards the lower surface). However, once the surfaces are close enough to start interacting with each other, the measured separation distance deviates from the expected separation calibrated when there is no force between the surfaces. This deviation is due to the deflection of the double cantilever spring and is directly proportional to the force acting normally between the two opposing surfaces. Thus the normal force can be measured using Hooke's law, F=kΔx, where k is the spring constant of the double-cantilever spring and Δx=Dactual−Dapplied is the deflection of the spring, determined by taking the difference between the applied change in position of one of the surfaces Dapplied and the actual change in distance measured between the surfaces Dactual. The actual distance, Dactual, between the surfaces can be measured by multiple beam interferometry (MBI) and will be discussed below.
# The distance between the surfaces, shape of the interface and the refractive index of the media between the surfaces can be accurately determined by Multiple Beam Interferometry (MBI) technique. In this technique, white light is directed through two back-silvered mica surfaces (or uniform and same thickness). As a white light passes between the mica surfaces, it undergoes interference due to the optical trap set up by the back silver on each of these surfaces giving rise to discrete wavelengths of light (FIG. 2C). These wavelengths of light are resolved in a spectrometer creating interference fringes known as ‘fringes of equal chromatic order’ (FECO). Since mica is birefringent, the FECO appears as doublets and termed as β and γ. Alternate fringes are termed as odd and even fringes with odd fringes having nodes at the center and even fringes with anti-nodes in the center. The FECO is then recorded on a camera and analyzed to determine the distance between the surfaces using the following equations: […]
# The adhesion/cohesion energy of the synthetic zwitterionic molecules was investigated in SFA (SurForce LLC, Santa Barbara, CA). Two molecularly smooth freshly cleaved back silvered mica surfaces glued on cylindrical silica discs of radius of curvature, R˜2 cm, were mounted in the SFA and 50 μL of a colloidal dispersion of the synthetic molecules in DI water were injected between the surfaces at different concentrations (C=0.5-5 mM) and the forces between the thin films of the molecules were measured by Multiple Beam Interferometry (MBI). The adhesion forces between Z-Cat-C10 molecules on various surfaces, e.g., silica and copper, were also measured by AFM (MFP-3D, Asylum research, Goleta, CA) in DI water and ambient conditions, respectively, at room temperature. AFM probes with a silicon dioxide particle (10, 5, and 1 μm, respectively) on a silicon nitride (SN) cantilever-0.6 N m^−1 were purchased from Novascan Technologies, Inc (Ames, IA). Cantilever spring constants were measured for each force run. Images of Z-Cat-C10 coating on silicon wafer and copper plates were visualized in an AFM. […]
# [9] = Stability of isolated compound over time (NMR observation); format: physicochemical; conditions: after isolation
# Protocol: Attempts to increase the level of purity by either recrystallization or HPLC were unsuccessful and the compound was used “as is” for further study. It is recommended that extra care is taken to ensure that this compound be protected from atmospheric oxygen, and be used and analyzed immediately after isolation. […] Reaction time=4 days (96 hours) 69% isolated yield.
# [10] = Contact angle measurements on SAM-modified substrates; format: physicochemical; conditions: SAM-modified nano-grooved SiO2
# Protocol: The nano-grooved SiO2 substrates passivated with Z-Cat-Ben or Z-Cat-Ben-F SAMs were prepared with the same procedure described above. For the reference substrate, the pre-cleaned and ultraviolet/ozone-treated (for 10 min) nano-grooved SiO2 substrate was passivated with n-decyltrichlorosilane (Gelest Inc.) in toluene solution (1% by volume) at 80° C. for 20 min in ambient air. Then, the substrate was subsequently sonicated in toluene and rinsed with additional toluene several times. Anhydrous chlorobenzene (50 μL) was used as a droplet dropping on the substrates. All contact angle images were taken at the direction perpendicular to nano-grooves in the substrates using Dataphysics OCA 15EC goniometer.
# [11] = n-DTS-modified nano-grooved SiO2, earlier reports; cited from earlier work
compound,measurement,setting,value
"C=CC(=O)OCC(O)Cc1ccc(O)c(O)c1 (stereo not shown) [P3, 3-(3,4-dihydroxyphenyl)-2-hydroxypropyl acrylate]",Pad relative to MDP primer,[1],~8 times
same,Pad relative to Silane primer,[1],~2 times
same,increase in adhesion vs plain mica (no primer),[1],~10 fold
same,adhesion pressure Pad,[1]; n=5,201.5±50.2 kPa and ~200 kPa
same,thickness from QCM-D,[2],~1.6 nm
same,mass loss during rinsing,[2]; of initial mass,negligible
same,contact cytotoxicity,[3],non-toxicity was confirmed
same,adsorption seen by AFM,"[4]; 1 wt.% solution, mica and glass",densely primed
same,AFM height,[4]; mica,1-2 nm
same,"lap shear strength σshear,max",[5],3.0±0.3 MPa
same,"lap shear strength σshear,max",[6],0.8±0.2 MPa
same,"lap shear strength σshear,max",[7],4.2±0.7 MPa
C[N+](C)(CCCc1ccc(O)c(O)c1)CCOP(=O)([O-])OCCCc1ccc(O)c(O)c1 [Z-Cat-Cat],cohesion (or adhesion) energy Wc,[8],8.1±1.3 mJ m^−2
same,stability over time,[9],highly susceptible to degradation over time
"CCCCCCCCCC[Si](Cl)(Cl)Cl [n-DTS, n-decyltrichlorosilane, reference compound]",contact angle θ of chlorobenzene droplet,[10],≈ 31 °
same,saturation hole mobilities,[11],23-58 cm^2 V^−1 s^−1
